A short description of data set [1]: Mucous barrier model: ability of molecules to cross a barrier (permeable support, “SUBSTRATE” or Mus^3SUB). The format is in vitro ADME. The conditions noted are these: interactive barrier, mucin in the “SUBSTRATE” (Mus^3SUB); FIG. 4. Here is the method:
“SUBSTRATE” and Mus^3SUB with the features referred to in Example 2 were tested for the ability thereof to mimic the mucous barrier.
The charts in FIG. 4 show the ability of said molecules to cross a barrier, where the barrier consists of a permeable support, “SUBSTRATE” or Mus^3SUB.

The conditions of data set [2]: cited from earlier work.

For the compound `CC1=C(C(=O)O)N2C(=O)[C@@H](NC(=O)[C@H](N)c3ccccc3)[C@H]2SC1` [Cefalexin], the “transition of the drug across the barrier” value in data set [1] is “very quick”.
Take `COc1cccc2c1C(=O)c1c(O)c3c(c(O)c1C2=O)C[C@@](O)(C(=O)CO)C[C@@H]3O[C@H]1C[C@H](N)[C@@H](O)[C@H](C)O1` [Epirubicin]: in data set [2], the pKa – broadly, the pH at which an ionisable group is half protonated – is listed as 8.01. Besides, the “log D7.4” value in data set [2] (pH 7.4) was 0.03. Besides, the “transition of the drug across the barrier” value in data set [1] is on record as “slowed”.

Source of the values: US20220073857A1, “THREE-DIMENSIONAL SUBSTRATE FOR MICROBIAL CULTURES” (POLITECNICO DI MILANO, priority 2018, published 2022).
